The values that follow come from a melting point compilation (Tetko et al.; mined from patent text by program, amines drawn as free bases though some values may be those of a salt).

`CCN(CC)CCCOc1ccc(C(O)(CC)c2cccc(C(F)(F)F)c2)cc1` (stereo unspecified) displayed a melting point of 44 to 46 °C.
Compound `Cc1scc(CO)c1N` registered a melting point of 70 to 71 °C.
On to `O=c1[nH]c2cc(Cl)ccc2n1C1CCN(Cc2cccc(-c3ccc(Cl)cc3)n2)CC1`, for which the melting point was 203 to 205 °C.
In turn, `Fc1cc2c(c(-c3c(Cl)cccc3Cl)c1)OC(CN1CCCC1)C2` (stereo unspecified) gave a melting point of 65 to 67 °C.
`CN1CCC(O)(c2ccccc2N)CC1` came in with a melting point of 135 to 136 °C.
Take `Cc1nc(N)nc(O)c1I`: the melting point stood at 212 °C.
As for `COC(=O)c1ccc(F)c(Br)c1`, the figure is 29 to 30 °C; as for `Nc1nc2ccccc2c2c1ncn2CCOCCCc1ccncc1`, 160 to 162 °C; as for `CCOC(=O)C(CCc1ccccc1)NC(CCCCNC(=O)CNC(=O)OC(C)(C)C)C(=O)O` (stereo unspecified), 137 °C.
The same measure for `NS(=O)(=O)c1cc2c(s1)SCC(=O)N2`: 243 to 245 °C; for `OC[C@@H]1CC[C@H]2CN(c3ncc(F)cn3)CCN2C1`: 148 to 150 °C.
As to `CC(=O)Oc1nc(-c2ccc(C(=O)O)cc2)sc1C`, the melting point was 227 to 230 °C.
As for `Cc1ccc2c(c1)N=Cc1cccc3c1N2CC3`, the figure is 77 to 78 °C.
As for `CC(C)OC1OC(=O)CC(C)(C)C1O` (stereo unspecified), the figure is 50 °C; as for `CCCCCC#CCC(CC#CCCCCC)(C(=O)NO)S(=O)(=O)c1ccc(OC)cc1`, 83 to 84 °C.
As for `COc1ccc(Cc2cnc(NCCc3ccccc3Cl)nc2N2CCc3cc(OC)c(OC)cc3C2)cc1OC`, the figure is 140 to 141 °C.
Consider `CCOC(=O)N(C)CC1CN(c2c(F)cc(C(=O)O)c(F)c2F)CCO1` (stereo unspecified), for which the melting point is 170 to 172 °C.
The same measure for `Nc1cc(Cc2n[nH]c(=O)c3ccccc23)ccc1Cl`: 227 to 228 °C; for `CCOc1ccc(NC=C(C#N)C(=O)Nc2cc(OC)c(Cl)cc2Cl)cc1F`: 245 to 247 °C; for `CC(=O)Nc1ccc(C#N)cc1I`: 176 to 181 °C.
The compound `Cc1ccc(S(=O)(=O)n2c(Br)cc(-c3ccc(F)cc3)c2-c2ccc(S(C)(=O)=O)cc2)cc1` registered a melting point of 207 to 208 °C.
As to `CCn1ncc2c(Cl)cc(-c3ccccc3)nc21`, the melting point lay in the range of 43 to 45 °C.
`O=C(NCCCC[C@H](O)C(=O)O)OCc1ccccc1`: the melting point lay within 79 to 81 °C.
As for `CCCCOc1cc(CCC(=O)O)ccc1-c1cccc(CN(C)C(=O)c2ccc(OC)cc2)c1`, the figure is 39 to 41 °C; as for `Cn1nnc(-c2ccc(OCC(O)CNCCOc3ccc(O)c(C(N)=O)c3)cc2)n1` (stereo unspecified), 174 to 175 °C.
As for `O=[N+]([O-])c1ccc(-c2cc3c(Nc4cccc(Cl)c4)ncnc3[nH]2)cc1`, the melting point is > 250 °C.
In the case of `O=c1cc(-c2ccncc2)nc2n1CCOCC2`, the melting point is 156 to 159 °C.
`Cc1ccc2[nH]c(C(=O)O)cc2c1O` displayed a melting point of 262 °C.
Consider `CCCNC(=O)CCc1ccc2ccn(Cc3ccc(C(=O)NS(=O)(=O)c4ccccc4C)cc3OC)c2c1`, for which the melting point was found to be 110 °C.
The same measure for `CC(C)(C)c1nc(C[C@@H]2CC[C@](C)(NCC(=O)N3C[C@@H](F)C[C@H]3C#N)C2(C)C)no1`: 152 to 154 °C; for `NS(=O)(=O)c1cnc(-c2cn(-c3cc(-c4ccc(C(F)(F)F)cc4)cc(C(F)(F)F)n3)cn2)s1`: > 250 °C.
Compound `Cc1nc2cc(OC3SCC(O)C(O)C3O)ccc2s1` (stereo unspecified) displayed a melting point of 210 to 211 °C.
`O=C(/C=C/C=C/c1ccc(Br)cc1)NCCCC(=O)NO` registered a melting point of 173 to 175 °C.
On to `COc1cccc(C(=O)N2CCCC3=C2CCc2cc(Cl)ccc23)c1`, for which the melting point turned out to be 133 °C.
In the case of `CCC1c2nc[nH]c2CCN1C(=O)NC(C)C` (stereo unspecified), the melting point came out at 170 °C.
Turning to `Cc1cc(N)cc(C)c1NC(=O)CN1CCN(CCCC(c2ccc(F)cc2)c2ccc(F)cc2)CC1CO` (stereo unspecified), the melting point amounted to 85.2 °C.
Consider `CCn1nccc1NC(=O)c1cc(C(=O)OC)c(O)c2ncc(Cc3ccc(F)cc3)cc12`, for which the melting point lay in the range of 219 to 220 °C.
In turn, `CN(CCCCCCCC(=O)O)c1cnc(-c2ccccc2)c(-c2ccccc2)n1` showed a melting point of 116 to 117 °C.
Take `COC(c1ccccc1)n1cnc2c(-c3cccs3)nc(Cl)nc21` (stereo unspecified): the melting point lay within 183 to 185 °C.
With `O=C(c1ccc([N+](=O)[O-])cc1)N1Cc2ccc(C(=O)C(F)(F)F)n2Cc2ccccc21`, the melting point lay within 169 to 170 °C.
The compound `CCOC(=O)c1cn(NC)c2cc3c(cc2c1=O)OCO3` showed a melting point of 211 to 218 °C.
Turning to `Cc1cc(C#CCc2ccc3c(c2)C(C)(C)CCC3(C)C)ccc1C(=O)O`, the melting point fell in the range of 149 to 150 °C.
Take `O=C(O)[C@H](Cc1ccccc1)NC(=O)[C@@H]1CCCN1S(=O)(=O)c1ccc([N+](=O)[O-])cc1`: the melting point is 70 to 80 °C.
Take `BrCc1ccc2c(c1)C1(c3ccccc3-2)c2ccccc2-c2ccc(CBr)cc21`: the melting point fell in the range of 175 to 177 °C.
`Cc1nc2c(N)nc3ccccc3c2n1CC(C)(C)CC1(C)OCCO1` gave a melting point of 209 to 211 °C.
`CCOc1cc2c(Nc3ccc(Sc4nccn4C)c(Cl)c3)c(C#N)cnc2cc1F` displayed a melting point of 251 to 254 °C.
On to `COc1ccccc1Oc1ccc([N+](=O)[O-])cc1C(=O)O`, for which the melting point was in the range of 162 to 165 °C.
Consider `Cc1cc2[nH]ncc2cc1NC1=NCCS1`, for which the melting point lay within 218 to 221 °C.
For the compound `Cn1cc(-c2cc(Oc3ccccc3)c(Cl)cc2F)c(=O)cc1C(F)(F)F`, the melting point lay within 159 to 161 °C.
Compound `Nc1ccc2[nH]nc(-c3ccccc3)c2c1` gave a melting point of 104 °C.
`CCCCc1nc2c(c(C)c(C)n3nnnc23)n1CC(C)(C)NC(=O)NC1CCCCC1` showed a melting point of 194 to 197 °C.
Consider `O=C(Nc1ccc2ccccc2c1C(=O)O)OCc1cc2cc(-c3ccccc3)ccc2o1`, for which the melting point lay within 174 to 177 °C.
For the compound `c1c2c(cc3c1OCO3)CCNCC2`, the melting point is 82 to 84 °C.
The compound `Cc1c(N)ccc2[nH]cc(CCCO)c12` yielded a melting point of 141 to 142 °C.
Compound `COc1ccc(OC)c2[nH]c(-c3ccccc3)nc12` showed a melting point of 226 to 227 °C.
On to `CC(=NO)C(C)(C)NCC(CNC(C)(C)C(C)=NO)CC(O)Cn1ccnc1[N+](=O)[O-]` (stereo unspecified), for which the melting point is 185 to 187 °C.
`N=C(N)c1ccc(N2CC(CN3CCC(CC(=O)O)(C(=O)O)CC3)OC2=O)cc1` (stereo unspecified) showed a melting point of 145 °C.
As for `Cc1nc(-c2ccccc2)cc(-c2cccc(C=O)c2)c1C(=O)NCCN1CCOCC1`, the figure is 122 to 125 °C.
In the case of `Cc1ccccc1SCc1c(C(C)C)nc(C(C)C)c(CO)c1-c1ccc(F)cc1`, the melting point lay within 140 to 141 °C.
`CC(=O)NCCOc1ccc(-c2ccc(=O)n(Cc3ccc(Cl)cc3F)c2)cc1`: the melting point was found to be 153 °C.
The compound `CC(C)n1nc(-c2c(NCC(N)=O)nc(N)nc2-c2ccccc2)ccc1=O` had a melting point of 235 to 238 °C.
In the case of `CCCCCS(=O)(=O)NC(=O)/C=C/c1ccc(OCCOC)cc1Oc1ncc(NC(C)=O)cc1C`, the melting point was found to be 188 °C.
The compound `CNC(=O)N(C)c1cc(C)on1` registered a melting point of 77 to 78 °C.
Regarding `N#Cc1cccc(OCc2ccccc2)c1N`, the melting point fell in the range of 102 to 103 °C.
As for `O=[N+]([O-])c1ccc(-c2cccs2)cc1`, the figure is 124 to 126 °C; as for `CCOC(=O)c1cnn(C)c1C(=O)Nc1ccc2nc(-c3cccnc3)nn2c1`, 217 °C.
In turn, `ON=C1CCN(C2c3ccccc3COc3ccc(Br)cc32)CC1` (stereo unspecified) gave a melting point of 223 to 225 °C.
`Cc1noc(NS(=O)(=O)c2ccc([N+](=O)[O-])cc2)c1Br`: the melting point was in the range of 146 to 149 °C.
As for `CCCCc1nc(N)c(N=Nc2ccccc2)c(=O)[nH]1`, the figure is 266 to 270 °C; as for `O=C(O)C=CC1(Cc2ccccc2)C=CC=C(c2ccccc2)C1` (stereo unspecified), 165 to 174 °C; as for `COC(=O)CCCc1cc2nc(Cl)ccc2n1S(=O)(=O)c1ccc(OC)cc1`, 96 °C.
`CCOc1cc(C(=O)OC)cc(OCC)c1N=Nc1ccccc1` returned a melting point of 92 °C.
As for `CCC12CCC(=O)C=C1c1c(cc(OCC(=O)O)c(Cl)c1Cl)C2` (stereo unspecified), the figure is 237 to 238 °C; as for `COC(=O)c1ccc(CCn2ccn(C3CCc4ccccc4C3)c2=S)cc1` (stereo unspecified), 159 to 161 °C.
On to `CC1CC(=Cc2ccccc2O)C(=O)O1` (stereo unspecified), for which the melting point is 112 to 114 °C.
`Cc1c(O)nc2ccccc2c1C(=O)O`: the melting point is > 300 °C.
`COC(=O)c1ccc(S(C)(=O)=O)c(C=O)c1C` came in with a melting point of 108 to 110 °C.
In turn, `CC(=O)Oc1ccc(Cl)nc1` displayed a melting point of 45 to 47 °C.
Consider `Cc1cc(-n2cnnn2)cc2ccoc12`, for which the melting point amounted to 118 °C.
With `COc1ccc2c(c1)CCC[C@H]2NC(=O)c1cccc(Cl)c1O`, the melting point lay in the range of 111 to 113 °C.
As for `CCCCc1nc(S)c(C(=O)OCC)n1Cc1cc2c(cc1Cl)OCO2`, the melting point turned out to be 114 °C.
`FC(F)(F)c1nc(-c2ccc(OCCCn3ccnc3)cc2)no1` registered a melting point of 73 to 73.5 °C.
Consider `COC(=O)n1cc(C=O)c(-c2ccc([N+](=O)[O-])o2)n1`, for which the melting point lay in the range of 187 to 189 °C.
The same measure for `CN(C)CCCc1ccc(C(=O)/C=C/c2ccc(Cl)cc2)cc1`: 83 to 86 °C; for `O=C(O)COCC(=O)N1CCC(C(c2ccccc2)c2ccccc2)CC1`: 140 to 141 °C.
Turning to `Cn1c(=O)[nH]c2ncccc2c1=O`, the melting point lay within 272 to 274 °C.
`CC(C)Oc1nccc2c1C(c1ccccc1C(F)(F)F)c1c(ccnc1OC(C)C)N2` registered a melting point of 196 to 197 °C.
Consider `O=C(c1ccc(F)nc1)N1CCC[C@H](c2nc(-c3ccc[nH]3)no2)C1`, for which the melting point fell in the range of 131 to 132 °C.
Turning to `O=C(NCc1ccc(Cl)cc1)c1n[nH]c2ncc(I)cc2c1=O`, the melting point is > 300 °C.
The compound `CC1c2cccn2-c2ccc(F)cc2N1S(=O)(=O)c1ccc(O)cc1` (stereo unspecified) showed a melting point of 180 to 182 °C.
As to `COc1ccccc1N1CCN(C(=O)[C@@H](Cc2cccnc2)NC(=O)OC(C)(C)C)CC1`, the melting point amounted to 142 °C.

In general, melting point refers to the temperature of the solid-liquid transition.
